The values below come from US10138384B2, “Ophthalmic and contact lens solutions using bicine” (priority 2000, dated 2018).

Where a name gives a salt, the structure may show the parent alone.

For test [1], the system named is C. albicans. The experiment in a line: In vitro microbicidal activity, 0.2% phosphate buffer with PHMB (Example 4). It is filed as cell-based. Conditions: pH 7.2.
Test [2] can be described thus: Reduced preservative binding to contact lenses (radio-labeled C14-PHMB, gamma counter). As to conditions: 1 percent w/v in phosphate buffer, 12 hours at 37 degrees C; for Preservative (C14-PHMB) binding, Average: average of lens A and B. From the text:
Results were reported in ug/lens. […] The control was phosphate buffer and sodium chloride.

Another test relates to radio-labeled lysozyme. As to conditions: 1 percent w/v in phosphate buffer, 12 hours at 37 degrees Celsius. As to the method:
Contact lenses were soaked and heated in test solutions to which a radio-labeled lysozyme was present in a known amount for a period of 12 hours at 37 degrees Celsius. The lenses were rinsed with distilled water in order to remove residual solution. The lenses were then assayed for protein deposition using a Beckman BioGamma I counter. Results were reported in ug/lens.
Choline chloride was a 1 percent w/v solution. The matrix control was phosphate buffer and sodium chloride.

For the next test, the system named is lysozyme. The experiment in a line: Protein deposition inhibition on contact lenses (lysozyme, BCA method). Conditions: lenses soaked overnight in test solution (additives 1 percent w/v in phosphate buffer), then lysozyme 37 degrees C for 12 hours. As to the method:
Contact lenses were soaked test solutions overnight. Afterwards, lysozyme was added to the tubes and warmed to 37 degrees C. for 12 hours. […] The lenses were assayed for protein deposition by the BCA method and detected on an HP PDA Spectrophotometer. Results were reported in ug/lens. […] The control was phosphate buffer and sodium chloride.

For test [3], the system named is C. albicans. In words: In vitro microbicidal activity, 0.1% phosphate buffer with PHMB and hydrogen peroxide (Example 3B). It is filed as cell-based. As to conditions: additive 1%, PHMB 0.0001%, hydrogen peroxide 0.0060%; for C albicans log reduction: pH 7.0, 4 hours at room temperature; for Improvement (log reduction versus buffer control): pH 7.0, 4 hours, buffer control 0.41. The protocol:
The solutions were made isotonic with sodium chloride and preserved with polyhexamethylene biquanide at 0.0001% and hydrogen peroxide at 0.0060%. Dequest […] was added as a stabilizer. The pH was adjusted to 7.0 with either 1 N sodium hydroxide. […] Subsequently, an aliquot of each solution was serial diluted onto agar plates and incubated for 48 hours at elevated temperatures. At the conclusion of the incubation period the plates are examined for the development of colonies. The log reduction was determined based on a comparison to the inoculum control. The following table provides the results of the in vitro studies.

Setting [4] is: additive 0.5%, 0.2% phosphate buffer, PHMB 0.0001%, 4 hours at room temperature.
Where [5] appears, read: additive 0.5%, 0.2% phosphate buffer, PHMB 0.0001%, 4 hours, buffer control 0.99.

In the case of `CN(CC(=O)O)C(=N)N` [creatine, Creatine], the “C albicans log reduction” value in the test on C. albicans [1] (setting [4]) was found to be 1.72 log. The “Improvement (log reduction versus buffer control)” value with C. albicans [1] (setting [5]) is 0.73.

As for `C[N+](C)(C)CC(O)CC(=O)[O-]` (centres unmarked) [carnitine, Carnitine], in test [2], the “Preservative (C14-PHMB) binding, Average” value is 11 ug/lens; the “Preservative (C14-PHMB) binding, Lens A” value came to 9 ug/lens; the “Preservative (C14-PHMB) binding, Lens B” value stood at 13 ug/lens. For the same compound, the “C albicans log reduction” value in the test with C. albicans [1] (setting [4]) came out at 1.28 log. Also, in the test with C. albicans [1] (setting [5]), the “Improvement (log reduction versus buffer control)” value was 0.29.

Take `C[N+](C)(C)CCO` [choline, Choline]: the “C albicans log reduction” value with C. albicans [1] (setting [4]) was determined as 2.24 log. In addition, in the test on C. albicans [1] (setting [5]), the “Improvement (log reduction versus buffer control)” value worked out at 1.25.

`O=C(O)CNC(CO)(CO)CO` [tricine, N-tris(hydroxymethyl)methyl glycine]: the “C albicans log reduction” value in the test on C. albicans [1] (setting [4]) came to 1.33 log. Besides, the “Improvement (log reduction versus buffer control)” value in the test on C. albicans [1] (setting [5]) was found to be 0.34.

As to `C[N+](C)(C)CCO.[Cl-]` [Choline Chloride], in the test on radio-labeled lysozyme (average of lens A and B), the “Protein deposition, Average” value turned out to be 12 ug/lens. Moreover, the “Protein deposition, LensA” value in the test on radio-labeled lysozyme (lens A) is 14 ug/lens. Also, the “Protein deposition, LensB” value with radio-labeled lysozyme (lens B) turned out to be 9 ug/lens. For the same compound, in test [2], the “Preservative (C14-PHMB) binding, Average” value came out at 14.5 ug/lens; the “Preservative (C14-PHMB) binding, Lens A” value was found to be 18 ug/lens; the “Preservative (C14-PHMB) binding, Lens B” value was determined as 11 ug/lens. Further, in the test with lysozyme, the “ug lysozyme per lens” value turned out to be 4.1 ug/lens.

Consider `O=C(O)CN(CCO)CCO` [bicine, N,N-Bis(2-hydroxyethyl)-glycline], for which, in the test on C. albicans [3], the “C albicans log reduction” value is reported as 0.75 log and the “Improvement (log reduction versus buffer control)” value amounted to 0.34.

On to `CN1CC(=O)NC1=N` [creatinine, Creatinine], for which, in the test on C. albicans [3], the “C albicans log reduction” value is recorded as 1.42 log and the “Improvement (log reduction versus buffer control)” value is 1.01.

`C[N+](C)(C)CC(=O)O` [betaine HCI, Betaine HCl]: in test [2], the “Preservative (C14-PHMB) binding, Average” value is listed as 7 ug/lens; the “Preservative (C14-PHMB) binding, Lens A” value is given as 6 ug/lens; the “Preservative (C14-PHMB) binding, Lens B” value came to 8 ug/lens. Further, the “C albicans log reduction” value with C. albicans [1] (setting [4]) was determined as 1.37 log. Besides, the “Improvement (log reduction versus buffer control)” value in the test with C. albicans [1] (setting [5]) is on record as 0.38. Further, the “ug lysozyme per lens” value with lysozyme turned out to be 2.44 ug/lens.

On to `OCCN(CCO)C(CO)(CO)CO` [bis-tris, Bis-(2-hydroxyethyl)imino-tns (hydroxymethyl) methane], for which, in the test on C. albicans [1], the “C albicans log reduction” value came to 1.21 log and the “Improvement (log reduction versus buffer control)” value came out at 0.22.

Take `CCN(CC)CC` [triethylamine, Triethylamine]: in the test on C. albicans [1] (setting [4]), the “C albicans log reduction” value came out at 1.64 log. The “Improvement (log reduction versus buffer control)” value in the test with C. albicans [1] (setting [5]) worked out at 0.65.
